Experimental data published in publication PMC10813862, “Gαi2 Protein Inhibition Blocks Chemotherapy- and Anti-Androgen-Induced Prostate Cancer Cell Migration” (Cancers, 2024).
Where “and” joins values, the source holds several entries; their conditions need not be identical. Equal entries are not always repeated.

Columns and labels:
LNCaP cells [1] = experiment: MTS viability, LNCaP cells; format: cell-based; conditions: Homo sapiens, 72 h, n=3
Experimental: (§1) Figure S1A. Effects of compounds 3- 7, 10, 12, 13 and 15 on the viability of LNCaP,
(§2) MDA-MD-231, MCF-7 and Vero cells. The cells are incubated with the drugs for 72 h
(§3) and viability evaluated with MTS. NI = IC50 greater than 100 μM. n=3
(§4) Compound LNCaP (µM) MDA-MB-231 (µM) MCF-7 (µM) Vero (µM)

MCF-7 cells = experiment: MTS viability, MCF-7 cells; format: cell-based; conditions: Homo sapiens, MCF7, 72 h, n=3
Experimental: as §1, §2, §3, §4

MDA-MB-231 cells = experiment: MTS viability, MDA-MB-231 cells; format: cell-based; conditions: Homo sapiens, 72 h, n=3
Experimental: as §1, §2, §3, §4

PC3 cells [2] = experiment: transwell migration assay, PC3 cells; format: cell-based, human; conditions: for effect on PC3 cell migration (migration index): compound alone, concentration range 0.1 to 100 μM, 5 h, compared with 14; for PC3 cell migration in combination with SAHA or docetaxel: Gαi2 inhibitor at 20 μM, in combination with either SAHA or docetaxel; for effect of chemotherapeutic drugs on PC3 cell migration: drug alone, AR-negative cells
Experimental: (§5) In vitro transwell migration assays were conducted as described previously. Briefly, the outside of the transwell inserts (BD Biosciences, San Jose, CA, USA) were coated with 50 µL of rat tail collagen (50 μg/mL; BD Biosciences, San Jose, CA, USA) overnight at 4 °C. The next day, 50 μL of the aforementioned rat tail collagen was added for 1 h at room temperature into the transwell inserts to coat the inside of the membranes. DU145, PC3 and LNCaP cells were trypsinized and suspended at the appropriate density (3 × 10^5 cells/insert for DU145 and PC3, and 5 × 10^5 cells/insert for LNCaP) in MEM or RPMI containing 0.2% BSA (Sigma-Aldrich, St. Louis, MO, USA). Chemoattractant solution, used as the positive control, was made by diluting the epidermal growth factor (EGF) (10 ng/mL) into MEM (PC3 and DU145) or RPMI (LNCaP) supplemented with 0.2% BSA. Media containing 0.2% BSA served as a control. Control and EGF solutions (400 μL) were added into the wells of a 24-well plate. Aliquots of 100 μL of cell suspensions, treated with or without the different compounds at several concentrations, were loaded into the transwell inserts, and the plates were incubated at 37 °C for 5 h (DU145 and PC3) or 24 h (LNCaP). The cells inside the transwell inserts were removed by cotton swabs, and the cleaned inserts were fixed with 350 μL of 4% paraformaldehyde (pH 7.5) for 20 min at room temperature. Cells that had migrated to the outside of the transwell insert membrane were stained with 3 ng/mL of DAPI solution (Thermo Fisher Scientific, Eugene, OR, USA), and images of five non-overlapping fields were captured using an Axiovert 200M, Carl Zeiss (Thornwood, NY, USA) microscope. The number of stained nuclei were determined with automatic counting using image analysis software (ZEN 2012 (blue edition, Version 1.1.1.0); Carl Zeiss Microscopy GmbH, Oberkochen, Germany). The results were expressed as a migration index defined as the average number of cells per field for test substance/the average number of cells per field for the medium control.

Vero cells = experiment: MTS viability, Vero cells; format: cell-based; conditions: Chlorocebus sabaeus, 72 h, n=3
Experimental: as §1, §2, §3, §4

[3] = stability in human plasma; format: in vitro ADME; conditions: read-out: Plasma t1/2, Human
Description: Table 1 Stability of compounds 6, 7 and 10 in human and mouse plasma and liver microsomes. | column: Plasma (t1/2 = Min) / Human

[4] = stability in mouse liver microsomes; format: in vitro ADME; conditions: read-out: Microsome t1/2, Mouse
Description: Table 1 Stability of compounds 6, 7 and 10 in human and mouse plasma and liver microsomes. | column: Microsome (t1/2 = Min) / Mouse

[5] = stability in mouse plasma; format: in vitro ADME; conditions: read-out: Plasma t1/2, Mouse
Description: Table 1 Stability of compounds 6, 7 and 10 in human and mouse plasma and liver microsomes. | column: Plasma (t1/2 = Min) / Mouse

[6] = stability in human liver microsomes; format: in vitro ADME; conditions: read-out: Microsome t1/2, Human
Description: Table 1 Stability of compounds 6, 7 and 10 in human and mouse plasma and liver microsomes. | column: Microsome (t1/2 = Min) / Human

DU145 cells [7] = tested on: DU145 cells; set-up: method as in PMID 32575572; conditions: cited from earlier work
PC3 cells [8] = tested on: PC3 cells; set-up: method as in PMID 32575572; conditions: cited from earlier work
LNCaP cells [9] = experiment: transwell migration assay, LNCaP cells; format: cell-based, human; conditions: for effect on LNCaP cell migration (migration index): drug alone at several concentrations; for effect on LNCaP cell migration (migration index) / concentration of maximum induction of LNCaP cell migration: 24 h; for concentration of maximum induction of LNCaP cell migration: drug alone
Experimental: as §5

Gαi2 protein [10] = experiment: Western blot of Gαi2 protein levels in LNCaP cells; format: cell-based, human; conditions: 24 h; enzalutamide 2.5 μM, bicalutamide 2.5 μM, SBI-I-19 2 μM, SAHA 4 μM
Experimental: (§6) Docetaxel, a taxoid anti-cancer agent, was purchased from Millipore-Sigma and dissolved in DMSO at a starting concentration of 100 μM. SAHA, a commercially available FDA-approved HDACi, was purchased from Sigma-Aldrich (St. Louis, MO, USA) and dissolved in DMSO at a starting concentration of 100 mM. SBI-I-19, an HDAC inhibitor conjugated with anti-androgen, was dissolved in DMSO at a starting concentration of 50 mM. The anti-androgen drugs enzalutamide and bicalutamide were purchased from Selleckchem (Houston, TX, USA) and Sigma-Aldrich, respectively. Anti-androgens were prepared at a stock concentration of 100 mM (enzalutamide) and 10 mM (bicalutamide) in DMSO. The Gαi2 inhibitor (compound 14) was diluted in DMSO at a stock concentration of 100 mM, as previously described. All drugs used in the study were then diluted in the culture media to the final concentrations used in various assays. To determine the effects of specific treatments on the levels of Gαi2 protein, LNCaP and PC3 cells (10^6 cells) were cultured overnight in 10 cm^2 culture dishes. The cells were then treated with anti-androgens and other agents for 24 h and the total cell lysates were collected for Western blot analyses.
Western blot analyses were performed as described previously. Briefly, cell lysates were mixed with Laemmeli’s buffer (62.5 mM Tris, pH 6.8, 2% sodium dodecyl sulfate, 5% β–mercaptoethanol and 10% glycerol). Samples (30–35 µg proteins) were separated on 10% SDS-PAGE gels and transferred to polyvinylidene difluoride (PVDF) membranes (Millipore Corp., Bedford, MA, USA). After blocking the membranes with 5% fat-free milk in TBST (50 mM Tris, pH 7.5, containing 0.15 M NaCl, and 0.05% Tween 20) for 1 h at room temperature, the membranes were incubated with specific primary antibodies at appropriate dilutions (1:5000 for Gαi2; 1:3000 for α-tubulin) overnight at 4 °C. After washing, the blots were incubated with appropriate secondary antibodies. The blots were then developed in Millipore Luminata Forte (EMD Millipore) for 5 min and visualized using a BioRad ChemiDoc Imaging System, according to the manufacturer’s instructions. The density of specific protein bands was determined using ImageJ 1.53 K image analyses software.

DU145 cells [11] = experiment: transwell migration assay, DU145 cells; format: cell-based, human; conditions: drug alone, AR-negative cells
Experimental: as §5

Gαi2 protein [12] = experiment: Western blot of Gαi2 protein levels in PC3 cells; format: cell-based, human; conditions: 24 h; docetaxel 1 nM
Experimental: as §6
Western blot analyses were performed as described previously. […] The density of specific protein bands was determined using ImageJ 1.53 K image analyses software.

Structure (SMILES)	IC50 (LNCaP cells [1])	IC50 (MCF-7 cells)	IC50 (MDA-MB-231 cells)	effect on PC3 cell migration (migration index) (PC3 cells [2])	IC50 (Vero cells)	other results
CSc1ccc(NC(C)c2cc3ccccc3n2C)cc1 (stereo not shown) [Compound 7]	43.4 ± 3.9 µM	> 100 µM	> 100 µM	more effective relative to 14	> 100 µM	half-life [3]: > 120 min; half-life [4]: < 10 min; half-life [5]: > 120 min; PC3 cell migration in combination with SAHA or docetaxel (PC3 cells [2]): decreased significantly PC3 cell migration; half-life [6]: 45 min
C/C(=N\c1ccc(O)cc1)c1cc2ccccc2n1C [Compound 14]						EGF-induced migration of DU145 cells (DU145 cells [7]): attenuated the EGF-induced migration; EGF-induced migration of PC3 cells (PC3 cells [8]): attenuated the EGF-induced migration; effect on docetaxel-induced PC3 cell migration (PC3 cells [2]; compound 14 at 25 μM, simultaneous treatment with docetaxel): blocked the stimulatory effects of docetaxel; effect on HDACi- and anti-androgen-induced LNCaP cell migration (LNCaP cells [9]; compound 14 at 25 μM, simultaneous treatment with enzalutamide, bicalutamide, SAHA or SBI-I-19): blocked
O=C(CCCCCCC(=O)Nc1ccccc1)NO [SAHA]						levels of Gαi2 protein in LNCaP cells (Gαi2 protein [10]): induced a reduction in the levels of Gαi2 protein; effect of chemotherapeutic drugs on DU145 cell migration (DU145 cells [11]): increased cell migration; effect of chemotherapeutic drugs on PC3 cell migration (PC3 cells [2]): induced an increase in cell migration; effect on LNCaP cell migration (migration index) (LNCaP cells [9]): induced a significant dose-dependent increase in cell migration; concentration of maximum induction of LNCaP cell migration (LNCaP cells [9]): 0.5 µM and 1 µM
CC1(C)C(=O)N(c2ccc(C#N)c(C(F)(F)F)c2)C(=O)N1Cc1ccc(-c2cn(CCCCC(=O)NO)nn2)cc1 [SBI-I-19]						levels of Gαi2 protein in LNCaP cells (Gαi2 protein [10]): increased levels of Gαi2 protein; effect of chemotherapeutic drugs on DU145 cell migration (DU145 cells [11]): increased cell migration; effect on LNCaP cell migration (migration index) (LNCaP cells [9]): induced a significant dose-dependent increase in cell migration; concentration of maximum induction of LNCaP cell migration (LNCaP cells [9]): 1 µM and 2 µM
CC(O)(CS(=O)(=O)c1ccc(F)cc1)C(=O)Nc1ccc(C#N)c(C(F)(F)F)c1 (stereo not shown) [bicalutamide]						levels of Gαi2 protein in LNCaP cells (Gαi2 protein [10]): increased levels of Gαi2 protein; effect on LNCaP cell migration (migration index) (LNCaP cells [9]): induced a dose-dependent increase in cell migration; concentration of maximum induction of LNCaP cell migration (LNCaP cells [9]): 2.5 µM
CC(=O)O[C@@]12CO[C@@H]1C[C@H](O)[C@@]1(C)C(=O)[C@H](O)C3=C(C)[C@@H](OC(=O)[C@H](O)[C@@H](NC(=O)OC(C)(C)C)c4ccccc4)C[C@@](O)([C@@H](OC(=O)c4ccccc4)[C@H]21)C3(C)C [docetaxel, reference compound]						levels of Gαi2 protein in PC3 cells (Gαi2 protein [12]): had no effect on the levels of Gαi2 protein; effect of chemotherapeutic drugs on PC3 cell migration (PC3 cells [2]): induced an increase in cell migration
CNC(=O)c1ccc(N2C(=S)N(c3ccc(C#N)c(C(F)(F)F)c3)C(=O)C2(C)C)cc1F [enzalutamide]						levels of Gαi2 protein in LNCaP cells (Gαi2 protein [10]): increased levels of Gαi2 protein; effect of chemotherapeutic drugs on DU145 cell migration (DU145 cells [11]): increased cell migration; effect on LNCaP cell migration (migration index) (LNCaP cells [9]): induced a dose-dependent increase in cell migration; concentration of maximum induction of LNCaP cell migration (LNCaP cells [9]): 2.5 µM

The next lines start with results.

IC50 (LNCaP cells [1])	IC50 (MCF-7 cells)	IC50 (MDA-MB-231 cells)	Structure (SMILES)	effect on PC3 cell migration (migration index) (PC3 cells [2])	IC50 (Vero cells)	other results
> 100 µM	> 100 µM	> 100 µM	Cn1c(/C=N/c2ccc(O)cc2)cc2ccccc21 [Compound 3]	concentration dependent reduction of PC3 cell migration, but less efficiently relative to 14	> 100 µM	
> 100 µM	> 100 µM	> 100 µM	CSc1ccc(/N=C(\C)c2cc3ccccc3n2C)cc1 [Compound 4]	concentration dependent reduction of PC3 cell migration, but less efficiently relative to 14	> 100 µM	
> 100 µM	> 100 µM	> 100 µM	Cn1c(CNc2ccc(O)cc2)cc2ccccc21 [Compound 5]	comparable potency	> 100 µM	
86.8 ± 10.8 µM	75.7 ± 5.3 µM	27.3 ± 4.8 µM	CC(Nc1ccc(O)cc1)c1cc2ccccc2n1C (stereo not shown) [Compound 6]	more effective relative to 14	32.4 ± 1.6 µM	half-life [3]: > 120 min; half-life [4]: 47 min; half-life [5]: 27 min; PC3 cell migration in combination with SAHA or docetaxel (PC3 cells [2]): decreased significantly PC3 cell migration; half-life [6]: 118 min
> 100 µM	> 100 µM	> 100 µM	CSc1ccc(OC(C)c2cc3ccccc3n2C)cc1 (stereo not shown) [Compound 10]	less potent compared to 7	> 100 µM	half-life [3]: > 120 min; half-life [4]: < 10 min; half-life [5]: > 120 min; PC3 cell migration in combination with SAHA or docetaxel (PC3 cells [2]): decreased significantly PC3 cell migration; half-life [6]: 35 min
> 100 µM	> 100 µM	> 100 µM	CC(Oc1ccc(S(C)(=O)=O)cc1)c1cc2ccccc2n1C (stereo not shown) [Compound 12]	less effective	> 100 µM	
> 100 µM	> 100 µM	> 100 µM	CC(Oc1ccc([S+](C)[O-])cc1)c1cc2ccccc2n1C (stereo not shown) [Compound 13]	less effective	> 100 µM	
> 100 µM	> 100 µM	> 100 µM	CC(Oc1ccc(O)cc1)c1cc2ccccc2n1C (stereo not shown) [Compound 15]	did not inhibit the migration of PC3 cells at the maximum concentration tested	> 100 µM	
